# Measurements reported in ChEMBL document CHEMBL1134869, “Discovery of potent, selective human granzyme B inhibitors that inhibit CTL mediated apoptosis” (Bioorg Med Chem Lett, 2002).
# Residues, ends and D or L forms follow the SMILES beside them.
# Assays:
# Granzyme B [1] = molecular target: T1, Granzyme B (Homo sapiens, UniProt P10144); experiment: Compound was tested for its inhibition against human granzyme B; Not active
# Granzyme B [2] = molecular target: T1, Granzyme B; experiment: Inhibition against human granzyme B
# [3] = Inhibition of CTL mediated apoptosis using humanNK-92 natural killer cells acting on target K-562 cells whose DNA had previously been labeled with [125I]-iododeoxyuridine; format: cell-based, Homo sapiens; details: k562
# Caspase-3 (Homo sapiens) = molecular target: T2, Caspase-3 (Homo sapiens) (UniProt P42574); experiment: Compound was tested for its inhibition against Caspase-3 at 50 uM; Not active
# T2 sequence (whole entry): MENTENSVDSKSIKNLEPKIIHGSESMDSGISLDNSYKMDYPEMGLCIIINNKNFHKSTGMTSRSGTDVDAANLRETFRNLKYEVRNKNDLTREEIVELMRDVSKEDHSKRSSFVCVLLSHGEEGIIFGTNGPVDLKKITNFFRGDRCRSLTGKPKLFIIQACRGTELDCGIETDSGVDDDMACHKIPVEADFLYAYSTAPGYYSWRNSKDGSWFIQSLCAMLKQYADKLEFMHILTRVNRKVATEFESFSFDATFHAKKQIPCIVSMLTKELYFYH
# T1 sequence (P10144 whole entry): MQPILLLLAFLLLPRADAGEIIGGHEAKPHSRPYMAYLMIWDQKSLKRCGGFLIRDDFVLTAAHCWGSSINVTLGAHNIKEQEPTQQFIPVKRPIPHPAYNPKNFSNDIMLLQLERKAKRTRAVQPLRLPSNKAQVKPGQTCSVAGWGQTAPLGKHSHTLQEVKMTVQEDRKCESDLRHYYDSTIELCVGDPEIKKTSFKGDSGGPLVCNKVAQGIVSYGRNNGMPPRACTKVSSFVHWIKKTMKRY
Compound,Ki (Granzyme B [2]) [nM],further results
CC[C@H](C)[C@@H](C(=O)N[C@H]1CCc2cccc3c2N(C1=O)[C@H](C(=O)NCc1cc[nH]n1)C3)N(C)C(C)=O,,Ki (Granzyme B [1]): Not Active
CC[C@H](C)[C@H](NC(C)=O)C(=O)N[C@@H](CCC(=O)O)C(=O)N1CCC[C@H]1C(=O)N[C@H](C=O)CC(=O)O (Ac-IEPD-aldehyde),80,
CC(C)[C@@H](C(=O)N[C@H]1CCc2cccc3c2N(C1=O)[C@H](C(=O)NCc1cn[nH]n1)C3)c1ccccn1,75,Ki [3]: 30 nM
CC[C@H](C)[C@H](NC(=O)Cc1ccccc1)C(=O)N[C@H]1CCc2cccc3c2N(C1=O)[C@H](C(=O)NCc1cn[nH]c1)C3,13,Ki [3]: 6.3 nM
CC[C@H](C)[C@@H](C(=O)N[C@H]1CCc2cccc3c2N(C1=O)[C@H](C(=O)NCc1cc(=O)[nH]o1)C3)N(C)C(C)=O,360,
CC[C@H](C)[C@@H](C(=O)N[C@H]1CCc2cccc3c2N(C1=O)[C@H](C(=O)NCCC(=O)O)C3)N(C)C(C)=O,580,inhibition (Caspase-3 (Homo sapiens)): < 50%
CC[C@H](C)[C@@H](C(=O)N[C@H]1CCc2cccc3c2N(C1=O)[C@H](C(=O)NCc1cn[nH]c1)C3)N(C)C(C)=O,,Ki (Granzyme B [1]): Not Active
CC[C@H](C)[C@@H](C(=O)N[C@H]1CCc2cccc3c2N(C1=O)[C@H](C(=O)N[C@@H](CC(=O)O)C(=O)c1nc2ccccc2s1)C3)N(C)C(C)=O,85,
CC[C@H](C)[C@H](NC(C)=O)C(=O)N[C@H]1CC[C@H]2CC[C@@H](C(=O)N[C@H](C=O)CC(=O)O)N2C1=O,122,
CC[C@H](C)[C@@H](C(=O)N[C@H]1CCc2cccc3c2N(C1=O)[C@H](C(=O)NCc1cn[nH]n1)C3)N(C)C(C)=O,38,Ki [3]: 30 nM
CC[C@H](C)[C@@H](C(=O)N[C@H]1CCc2cccc3c2N(C1=O)[C@H](C(=O)NCc1nnn[nH]1)C3)N(C)C(C)=O,74,
CC[C@H](C)[C@H](NC(C)=O)C(=O)NCC(=O)N1CCC[C@H]1C(=O)N[C@H](C=O)CC(=O)O (Ac-IGPD-aldehyde),270,
CC[C@H](C)[C@H](NC(C)=O)C(=O)Nc1cccn(CC(=O)N[C@H](C=O)CC(=O)O)c1=O,133,
CC[C@H](C)[C@@H](C(=O)N[C@H]1CCc2cccc3c2N(C1=O)[C@H](C(=O)N[C@@H](CC(=O)O)C(=O)C(=O)OC)C3)N(C)C(C)=O,16,
CC[C@H](C)[C@@H](C(=O)N[C@H]1CCc2cccc3c2N(C1=O)[C@H](C(=O)NCc1nc[nH]n1)C3)N(C)C(C)=O,,Ki (Granzyme B [1]): Not Active
CC[C@H](C)[C@@H](C(=O)N[C@H]1CCc2cccc3c2N(C1=O)[C@H](C(=O)N[C@@H](CC(=O)O)C(=O)c1nnc(-c2ccccc2)o1)C3)N(C)C(C)=O,7,
CC[C@H](C)[C@H](NC(C)=O)C(=O)NCC(=O)N1c2ccccc2C[C@H]1C(=O)N[C@H](C=O)CC(=O)O,13,
CC[C@H](C)[C@H](NC(=O)Cc1csc2ccccc12)C(=O)N[C@H]1CCc2cccc3c2N(C1=O)[C@H](C(=O)NCc1cn[nH]c1)C3,7,Ki [3]: 3.1 nM
CC[C@H](C)[C@@H](C(=O)N[C@H]1CCc2cccc3c2N(C1=O)[C@H](C(=O)N[C@@H](CC(=O)O)C(=O)CSCc1ccc(F)cc1)C3)N(C)C(C)=O,2300,
